{
  "source": "patent US11841367B2",
  "about": "“TLR agonist-enhanced in vitro assay of cell mediated immune responsiveness” (Cellestis Limited, priority 2011, dated 2023)",
  "type_in_all_cases": "cell-based, human",
  "key": {"whole blood [1]": {"system": "whole blood", "test": "IFN-γ responses of whole blood in QFT-CMV tubes plus R848", "details": "for IFNγ response to antigen+R848 minus background to R848 alone, Mean: 16-24 hours"}, "whole blood [2]": {"system": "whole blood", "test": "Background IFN-γ responses to R848 alone in QFT-Nil tubes (whole blood, ELISA)", "details": "for IFNγ concentration of the plasma, background response, Mean: QFT-Nil tube, 1 ml whole blood, 37° C., 16-24 hours"}, "whole blood [3]": {"system": "whole blood", "test": "IFN-γ responses of whole blood in QFT-Nil tubes with EBV EBNA1 pepMix plus R848", "details": "for IFNγ response to antigen+R848 minus background to R848 alone, Mean: 16-24 hours"}, "whole blood [4]": {"system": "whole blood", "test": "Clinical study: QFT-TB response with added R848 in TB patients, TB suspects and household contacts", "details": "for effect on QFT-TB response: subjects positive to QFT-TB test alone"}},
  "data": [
    {"smiles": "CCOCc1nc2c(N)nc3ccccc3c2n1CC(C)(C)O", "note": "[R848]", "values": [
      {"measurement": "boost in responses in QFT-CMV tubes", "setting": "whole blood [1]; 0.05 μg/ml R848 added", "result": "not as large as that seen for EBV"},
      {"measurement": "boost in responses in QFT-CMV tubes", "setting": "whole blood [1]; 0.1 μg/ml R848 added", "result": "much greater"},
      {"measurement": "IFNγ response to antigen+R848 minus background to R848 alone, Mean", "setting": "whole blood [1]; QFT-CMV tube + 0.05 μg/ml R848, whole blood", "result": 15.96, "unit": "IU/ml"},
      {"measurement": "IFNγ response to antigen+R848 minus background to R848 alone, Mean", "setting": "whole blood [1]; QFT-CMV tube + 0.1 μg/ml R848, whole blood", "result": 79.53, "unit": "IU/ml"},
      {"measurement": "background responses to R848 alone", "setting": "whole blood [2]; 0.1 μg/ml R848, QFT-Nil tubes", "result": "significant background responses seen in many donors"},
      {"measurement": "IFNγ concentration of the plasma, background response, Mean", "setting": "whole blood [2]; R848 0.01 μg/ml alone", "result": "−0.009677 1 U/ml"},
      {"measurement": "IFNγ concentration of the plasma, background response, Mean", "setting": "whole blood [2]; R848 0.02 μg/ml alone", "result": "0.0100 1 U/ml"},
      {"measurement": "IFNγ concentration of the plasma, background response, Mean", "setting": "whole blood [2]; R848 0.025 μg/ml alone", "result": "0.0330 1 U/ml"},
      {"measurement": "IFNγ concentration of the plasma, background response, Mean", "setting": "whole blood [2]; R848 0.03 μg/ml alone", "result": "0.0925 1 U/ml"},
      {"measurement": "IFNγ concentration of the plasma, background response, Mean", "setting": "whole blood [2]; R848 0.04 μg/ml alone", "result": "0.5144 1 U/ml"},
      {"measurement": "IFNγ concentration of the plasma, background response, Mean", "setting": "whole blood [2]; R848 0.05 μg/ml alone", "result": "1.084 1 U/ml"},
      {"measurement": "IFNγ concentration of the plasma, background response, Mean", "setting": "whole blood [2]; R848 0.1 μg/ml alone", "result": "21.58 1 U/ml"},
      {"measurement": "background responses to R848 alone", "setting": "whole blood [2]; below 0.05 μg/ml R848, QFT-Nil tubes", "result": "not significant"},
      {"measurement": "boost in EBV responses", "setting": "whole blood [3]; 0.05 μg/ml R848 added to EBV EBNA1 peptide pool", "result": "significant boost"},
      {"measurement": "IFNγ response to antigen+R848 minus background to R848 alone, Mean", "setting": "whole blood [3]; 0.5 μg/ml EBV EBNA 1 pepMix + 0.01 μg/ml R848, whole blood", "result": 2.857, "unit": "IU/ml"},
      {"measurement": "IFNγ response to antigen+R848 minus background to R848 alone, Mean", "setting": "whole blood [3]; 0.5 μg/ml EBV EBNA 1 pepMix + 0.05 μg/ml R848, whole blood", "result": 18.32, "unit": "IU/ml"},
      {"measurement": "IFNγ response to antigen+R848 minus background to R848 alone, Mean", "setting": "whole blood [3]; 0.5 μg/ml EBV EBNA 1 pepMix + 0.1 μg/ml R848, whole blood", "result": 29.57, "unit": "IU/ml"},
      {"measurement": "responses to the antigen-R848 combined stimuli versus sum of separate responses", "setting": "whole blood [3]; EBV and CMV antigens, whole blood", "result": "greater than that seen by adding together the responses to the antigen and R848 alone individually"},
      {"measurement": "effect on QFT-TB response", "setting": "whole blood [4]; R848 0.05 μg/ml, P<0.001", "result": "significantly enhanced"},
      {"measurement": "effect on QFT-TB response", "setting": "whole blood [4]; R848 0.1 μg/ml, P<0.0001", "result": "significantly enhanced"},
      {"measurement": "patients negative with the current QFT-TB tube who became positive when R848 was added", "setting": "whole blood [4]; both R848 concentrations tested, both patients TB suspects", "result": "Two"}
    ]}
  ]
}
